Results taken from ChEMBL document CHEMBL5046256, “The discovery of potent small molecule cyclic urea activators of STING” (Eur J Med Chem, 2022).
Values belong to the molecule of their own block, whether it stands above or below them. Calls of active or inactive are those of the source. The calls are words filed in the database; no cut-off is given here.

Columns and labels:
HEK-293T [1] = assay: Agonist activity against human STING R232H variant transfected in HEK-293T cells co-expressing ISRE.ISG54 at 0.2 uM by luciferase reporter gene assay relative to control; assay type: cell-based; conditions: filed as agonist
HEK-293T [2] = assay: Agonist activity against human STING R232H variant transfected in HEK-293T cells co-expressing ISRE.ISG54 at 0.5 uM by luciferase reporter gene assay relative to control; assay type: cell-based
PBMC [3] = assay: Effect of compound on IRF3 phosphorylation in cynomolgus monkey PBMC cells at 10 uM for 2 hrs by immunoblotting; assay type: functional, cell-based; conditions: Macaca fascicularis
PBMC [4] = assay: Effect of compound on STING phosphorylation in cynomolgus monkey PBMC cells at 10 uM for 2 hrs by immunoblotting; assay type: functional, cell-based; conditions: Macaca fascicularis
[5] = Oral bioavailability in Balb/c mouse at 25 mg/kg measured by LC-MS/MS analysis; assay type: ADME, organism-based; conditions: in vivo
[6] = target: T1, Stimulator of interferon genes protein (Homo sapiens, UniProt Q86WV6); assay: Agonist activity against human STING HAQ variant expressed in HEK-293T cells co-expressing ISRE.ISG54 incubated for 18 hrs by luciferase reporter gene assay; assay type: cell-based
T1 sequence (Q86WV6 whole entry, looked up, stated change not applied): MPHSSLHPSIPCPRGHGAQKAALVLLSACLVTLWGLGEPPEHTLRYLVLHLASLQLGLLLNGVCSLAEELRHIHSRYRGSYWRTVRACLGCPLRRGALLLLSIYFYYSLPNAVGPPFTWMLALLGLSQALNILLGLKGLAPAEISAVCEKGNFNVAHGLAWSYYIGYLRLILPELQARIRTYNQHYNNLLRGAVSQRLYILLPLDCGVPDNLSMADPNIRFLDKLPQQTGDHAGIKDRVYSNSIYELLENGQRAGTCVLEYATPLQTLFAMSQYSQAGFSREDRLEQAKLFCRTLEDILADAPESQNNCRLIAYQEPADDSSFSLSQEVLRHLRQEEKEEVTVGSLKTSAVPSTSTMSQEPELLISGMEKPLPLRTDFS

PBMC [7] = assay: Effects of compound on IFN-beta production in cynomolgus monkey PBMC cells assessed as increase in […] level at 10 uM and measured upto 24 hrs by ELISA; assay type: functional, cell-based; conditions: Macaca fascicularis
[8] = Agonist activity against cynomolgus monkey STING expressed in HEK-293T cells co-expressing co-expressing ISRE.ISG54 by luciferase reporter gene assay; assay type: cell-based; conditions: Macaca fascicularis
[9] = test system: Stimulator of interferon genes protein (Homo sapiens), Q86WV6 [UNDEFINED MUTATION]; assay: Binding affinity to human STING R232 variant expressed in HEK-293T cells assessed as increase in thermal stability measured between 51 and 56 deg C at 10 uM for 2 hrs by cellular thermal shift assay; assay type: cell-based; conditions: filed as agonist
Chain of Stimulator of interferon genes protein (Homo sapiens), Q86WV6 [UNDEFINED MUTATION] (Q86WV6 whole entry, looked up, change not shown): as the sequence (Q86WV6 whole entry, looked up, stated change not applied) above

PBMC [10] = assay: Effects of compound on IL-6 production in cynomolgus monkey PBMC cells assessed as increase in IL-6 level at 10 uM and measured upto 24 hrs by ELISA; assay type: functional, cell-based; conditions: Macaca fascicularis
[11] = Half life in Balb/c mouse at 25 mg/kg, iv measured by LC-MS/MS analysis; assay type: ADME, organism-based; conditions: in vivo
[12] = AUC in monkey at 2.5 mg/kg, iv measured by LC-MS/MS analysis; assay type: ADME, organism-based, Macaca mulatta; parameters: dose 2.5 mg/kg; conditions: rhesus monkey, in vivo
[13] = Half life in Balb/c mouse at 25 mg/kg, po measured by LC-MS/MS analysis; assay type: ADME, organism-based; conditions: in vivo
[14] = Agonist activity against human STING R232H variant transfected in HEK-293T cells co-expressing ISRE.ISG54 by luciferase reporter gene assay; assay type: cell-based; conditions: Homo sapiens, HEK-293T
[15] = target: T1, Stimulator of interferon genes protein; assay: Agonist activity against human STING AQ variant transfected in HEK-293T cells co-expressing ISRE.ISG54 incubated for 18 hrs by luciferase reporter gene assay; assay type: cell-based
PBMC [16] = assay: Effects of compound on IFN-alpha production in cynomolgus monkey PBMC cells assessed as increase in […] level at 10 uM and measured upto 24 hrs by ELISA; assay type: functional, cell-based; conditions: Macaca fascicularis
[17] = AUC in Balb/c mouse at 25 mg/kg, iv measured by LC-MS/MS analysis; assay type: ADME, organism-based; parameters: dose 25 mg/kg; conditions: in vivo
[18] = Half life in monkey at 2.5 mg/kg, iv measured by LC-MS/MS analysis; assay type: ADME, organism-based, Macaca mulatta; conditions: rhesus monkey, in vivo
[19] = target: T1, Stimulator of interferon genes protein; assay: Agonist activity against human STING H232 variant transfected in HEK-293T cells co-expressing ISRE.ISG54 incubated for 18 hrs by luciferase reporter gene assay; assay type: cell-based
[20] = target: T1, Stimulator of interferon genes protein; assay: Agonist activity against human STING Q variant expressed in HEK293T cells co-expressing ISRE.ISG54 incubated for 18 hrs by luciferase reporter gene assay; assay type: cell-based; conditions: hek-293t
[21] = AUC in Balb/c mouse at 25 mg/kg, po measured by LC-MS/MS analysis; assay type: ADME, organism-based; parameters: dose 25 mg/kg; conditions: in vivo
[22] = Cmax/C0 in Balb/c mouse at 25 mg/kg, iv measured by LC-MS/MS analysis; assay type: ADME, organism-based; parameters: route intravenous, dose 25 mg/kg; conditions: in vivo
[23] = target: T1, Stimulator of interferon genes protein; assay: Agonist activity against human STING HAQ variant expressed in THP-1 cells co-expressing ISRE.ISG54 incubated for 18 hrs by luciferase reporter gene assay; assay type: cell-based
[24] = Cmax/C0 in monkey at 2.5 mg/kg, iv measured by LC-MS/MS analysis; assay type: ADME, organism-based, Macaca mulatta; parameters: route intravenous, dose 2.5 mg/kg; conditions: rhesus monkey, in vivo
[25] = Cmax/C0 in Balb/c mouse at 25 mg/kg, po measured by LC-MS/MS analysis; assay type: ADME, organism-based; parameters: route oral, dose 25 mg/kg; conditions: in vivo
HEK-293T [26] = assay: Agonist activity against human STING R232H variant transfected in HEK-293T cells co-expressing ISRE.ISG54 at 1 uM by luciferase reporter gene assay relative to control; assay type: cell-based; conditions: filed as agonist

SMILES: CC1c2ccc(C(=O)NCc3c(F)cc(F)cc3F)cc2N(Cc2cc(F)cc(F)c2)C(=O)N1C (racemic)
Activity (HEK-293T [1]): 81%

SMILES: CC1c2ccc(C(=O)NCc3c(F)cc(F)cc3F)cc2N(Cc2ccccc2F)C(=O)N1C (configuration not stated)
Activity (HEK-293T [2]; filed as agonist): 54%

bioavailability [5]: 44% | EC50 [6]: 0.026 µM | EC50 [8]: 0.099 µM | Activity [9]: Active | half-life [11]: 1.4 h | AUC [12]: 8.05 µg·h/mL | half-life [13]: 1.6 h | EC50 [14]: 0.018 µM | EC50 [15]: 0.083 µM | AUC [17]: 10.9 µg·h/mL | half-life [18]: 7.1 h | EC50 [19]: 0.059 µM | EC50 [20]: 0.09 µM | AUC [21]: 4.85 µg·h/mL | Cmax [22]: 20.1 µg/mL | EC50 [23]: 0.341 µM | Cmax [24]: 5.22 µg/mL | Cmax [25]: 2.48 µg/mL
SMILES: C[C@H]1c2ccc(C(=O)NCc3c(F)cc(F)cc3F)cc2N(Cc2c(F)cccc2Cl)C(=O)N1C
Activity (PBMC [3]): Active | Activity (PBMC [4]): Active | Activity (PBMC [7]): Active | Activity (PBMC [10]): Active | Activity (PBMC [16]): Active

SMILES: CC1c2ccc(C(=O)NCc3c(F)cc(F)cc3F)cc2N(Cc2ccccc2)C(=O)N1C (racemic)
Activity (HEK-293T [2]; filed as agonist): 74% | Activity (HEK-293T [26]): 73%

SMILES: Cc1cc(CN2C(=O)N(C)C(C)c3ccc(C(=O)NCc4c(F)cc(F)cc4F)cc32)on1 (configuration not stated)
Activity (HEK-293T [2]): 6%

SMILES: Cc1cc(CN2C(=O)N(C)C(C)c3ccc(C(=O)NCc4c(F)cc(F)cc4F)cc32)c(F)cn1 (configuration not stated)
Activity (HEK-293T [2]; filed as agonist): 64%

SMILES: Cc1cc(CN2C(=O)N(C)C(C)c3ccc(C(=O)NCc4c(F)cc(F)cc4F)cc32)no1 (configuration not stated)
Activity (HEK-293T [2]): 6%

SMILES: CC1c2ccc(C(=O)NCc3c(F)cc(F)cc3F)cc2N(Cc2ccc(Cl)cc2F)C(=O)N1C (configuration not stated)
Activity (HEK-293T [26]): 65%

SMILES: CC1c2ccc(C(=O)NCc3c(F)cc(F)cc3F)cc2N(Cc2cc(C(N)=O)ccc2F)C(=O)N1C (configuration not stated)
Activity (HEK-293T [26]): 71%
